Experimental data published in publication PMC6544300, “Mechanism of the efflux transport of demethoxycurcumin-O-glucuronides in HeLa cells stably transfected with UDP-glucuronosyltransferase 1A1” (PLoS ONE, 2019).
Like-named read-outs stand apart in the source and are kept apart here.

Columns and labels:
[1] = tested on: MRP2; set-up: method as in PMID 26502886; conditions: MRP2-mediated transport; cited from earlier work
[2] = tested on: BCRP transporter; set-up: method as in PMID 25587128; conditions: cited from earlier work
[3] = biological target: T1, BCRP (Homo sapiens, UniProt Q9UNQ0); set-up: method as in PMID 28925930; conditions: following curcumin pretreatment; subjects with ABCG2 421CC genotype; cited from earlier work
T1 sequence (Q9UNQ0 1-655): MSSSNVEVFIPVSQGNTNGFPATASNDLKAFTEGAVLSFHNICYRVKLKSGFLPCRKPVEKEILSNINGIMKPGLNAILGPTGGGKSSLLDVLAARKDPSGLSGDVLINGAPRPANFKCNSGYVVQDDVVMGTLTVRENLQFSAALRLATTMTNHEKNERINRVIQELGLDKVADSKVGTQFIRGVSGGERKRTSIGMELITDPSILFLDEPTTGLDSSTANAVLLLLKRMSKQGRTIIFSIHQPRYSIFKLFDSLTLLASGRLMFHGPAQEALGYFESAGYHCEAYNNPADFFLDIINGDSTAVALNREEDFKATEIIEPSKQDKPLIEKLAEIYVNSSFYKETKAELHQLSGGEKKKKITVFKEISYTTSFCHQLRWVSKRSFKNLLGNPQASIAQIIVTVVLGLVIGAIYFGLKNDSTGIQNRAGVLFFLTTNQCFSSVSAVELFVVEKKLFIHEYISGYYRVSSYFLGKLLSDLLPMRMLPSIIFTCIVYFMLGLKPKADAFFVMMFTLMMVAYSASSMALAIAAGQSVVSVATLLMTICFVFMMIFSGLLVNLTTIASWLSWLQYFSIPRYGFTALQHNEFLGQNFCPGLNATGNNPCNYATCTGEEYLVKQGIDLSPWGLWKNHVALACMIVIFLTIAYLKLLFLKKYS

[4] = tested on: MRP1; set-up: method as in PMID 26502886; conditions: MRP1-mediated transport; cited from earlier work
[5] = tested on: UGT2B7; set-up: method as in PMID 17628876; conditions: cited from earlier work
[6] = tested on: UGT1A8; set-up: method as in PMID 17628876; conditions: cited from earlier work
[7] = tested on: UGTs; set-up: method as in PMID 18480186; conditions: cited from earlier work
[8] = tested on: CYP3A4; set-up: method as in PMID 21287405; conditions: human CYP3A4; cited from earlier work
[9] = tested on: CYP1A2; set-up: method as in PMID 21287405; conditions: human CYP1A2; cited from earlier work
[10] = tested on: UGT1A3; set-up: method as in PMID 17628876; conditions: cited from earlier work
[11] = tested on: UGT1A10; set-up: method as in PMID 17628876; conditions: cited from earlier work
[12] = tested on: CYP2C9; set-up: method as in PMID 21287405; conditions: human CYP2C9; cited from earlier work
[13] = tested on: HeLa1A1 cells; test: Toxicity of DMC toward HeLa1A1 cells during excretion experiments; type: cell-based, human; conditions: DMC 4 μM
[14] = set-up: method as in PMID 24480327; conditions: 2 g curcuminoids incl. 12% DMC orally, two healthy volunteers; below detection limit; cited from earlier work
[15] = biological target: T2, UGT1A1 (Homo sapiens, UniProt P22309); test: DMC-O-glucuronidation kinetics by recombinant UGT1A1; type: in vitro ADME; set-up: purchased Corning Biosciences; conditions: for CLint: Vmax/Km; for Vmax: UGT1A1, Michaelis-Menten model
T2 sequence (P22309 26-533): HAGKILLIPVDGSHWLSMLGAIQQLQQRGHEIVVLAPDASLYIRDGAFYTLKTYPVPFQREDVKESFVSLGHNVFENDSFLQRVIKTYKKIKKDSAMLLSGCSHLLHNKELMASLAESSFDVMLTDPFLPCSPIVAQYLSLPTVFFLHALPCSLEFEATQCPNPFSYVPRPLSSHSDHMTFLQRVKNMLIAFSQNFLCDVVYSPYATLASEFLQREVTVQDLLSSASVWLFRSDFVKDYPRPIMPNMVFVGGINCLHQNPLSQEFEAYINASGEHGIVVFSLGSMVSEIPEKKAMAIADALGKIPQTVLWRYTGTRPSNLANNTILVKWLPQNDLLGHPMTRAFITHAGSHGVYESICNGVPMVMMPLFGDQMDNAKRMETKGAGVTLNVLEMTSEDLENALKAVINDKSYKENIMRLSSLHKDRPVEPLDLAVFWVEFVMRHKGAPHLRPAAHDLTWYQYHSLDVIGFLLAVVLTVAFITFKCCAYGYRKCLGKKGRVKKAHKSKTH
Description: (§1) The glucuronidation assay was performed as previously described. Briefly, alamethicin (22 μg/mL), D-saccharic-1,4-lactone (4.4 mM), MgCl2 (0.88 mM), UGT1A1 (1.0 mg/mL) or HeLa1A1 cell lysates (2.3 mg/mL) and DMC (0.5 to 40 μM) were mixed in a 50 mM Tris buffer (pH 7.4). After a preincubation at 37°C for 5 min, UDPGA (3.5 mM) was added to the incubation system, and the mixture was further incubated. After 30 min, the reactions were terminated by the addition of ice-cold acetonitrile (200 μL). The mixed samples were centrifuged at 13,800 x g for 10 min, and the supernatant was analyzed using UHPLC.
(§2) The best model was selected based on a visual inspection of the Eadie-Hofstee plots. Briefly, the rates (V) of glucuronide formation at various substrate concentrations (S) were fitted based on the standard Eq (3). Km represents the Michaelis-Menten constant and Vmax represents the maximum rate of glucuronidation. The intrinsic clearance (CLint) was derived from Vmax/Km. Model fitting and parameter estimation were performed by GraphPad Prism V5 software (SanDiego, CA, USA).

[16] = tested on: CYP3As; set-up: method as in PMID 18480186; conditions: cited from earlier work
[17] = tested on: SULTs; set-up: method as in PMID 18480186; conditions: cited from earlier work
[18] = tested on: human intestinal P-glycoprotein (P-gp); set-up: method as in PMID 19879740; conditions: cited from earlier work
[19] = biological target: T3, HeLa1A1 cell lysate (Homo sapiens, UniProt P22309); test: DMC-O-glucuronidation kinetics by HeLa1A1 cell lysate; type: in vitro ADME; conditions: for Km / Vmax: Michaelis-Menten model; for CLint: Vmax/Km
T3 construct: expressed in transfected cells; host or cells: HeLa cells stably overexpressing UGT1A1 (HeLa1A1), used as cell lysate
T3 sequence (P22309 26-533): T2 sequence (P22309 26-533)
Description: HeLa1A1 cells were grown in 10-cm dishes for 72 h and then washed and harvested in 50 mM Tris buffer (pH 7.4). The collected cells were sonicated using […] in an ice-cold water bath (4°C). Subsequently, the cell lysates were centrifuged at 13,800 x g for 10 min (4°C). The supernatant was collected for use in the UGT glucuronidation activity assay. The protein concentration was determined using the bicinchoninic acid (BCA) assay (Beyotime, Shanghai, China). Due to the thermal stability of UGT1A1, the glucuronidation activity of UGT1A1 was not affected during sonication process.
as §1, §2

[20] = set-up: method as in earlier work; conditions: cited from earlier work
[21] = tested on: UGT1A1; set-up: method as in PMID 17628876; conditions: cited from earlier work
[22] = tested on: 2C9; set-up: method as in PMID 18480186; conditions: cited from earlier work
[23] = formation of G1, HeLa1A1 cell lysate
[24] = formation of G2, HeLa1A1 cell lysate

COc1cc(/C=C/C(=O)CC(=O)/C=C/c2ccc(O)c(OC)c2)ccc1O [curcumin]
IC50 [1]: 5 µM
Ki [2]: 0.7 µM
increase in AUC of orally administered salazosulfapyridine (SASP) [3]: 3.2 fold
IC50 [4]: 15 µM

Demethoxycurcumin [DMC]
catalytic activity (glucuronidation of DMC) [5]: less than 1100 pmol/min/mg
catalytic activity (glucuronidation of DMC) [6]: less than 1100 pmol/min/mg
IC50 [7]: 13.9 µM
IC50 [8]: 7 µM
IC50 [9]: 34 µM
catalytic activity (glucuronidation of DMC) [10]: less than 1100 pmol/min/mg
catalytic activity (glucuronidation of DMC) [11]: less than 1100 pmol/min/mg
IC50 [12]: 1.4 µM
toxicity toward HeLa1A1 cells [13]: did not exert significant toxicity
DMC concentration [14]: < 2.0 ng/mL
Km ([15]; formation of G1, UGT1A1, Michaelis-Menten model): 4.5 ± 0.9 µM
CLint ([15]; formation of G1, UGT1A1): 225.9 ± 47.3 µL/min/mg
Vmax ([15]; formation of G1 from DMC (0.5-40 μM)): 1006.0 ± 62.8 pmol/min/mg
Km ([15]; formation of G2, UGT1A1, Michaelis-Menten model): 2.7 ± 0.5 µM
CLint ([15]; formation of G2, UGT1A1): 212.6 ± 38.3 µL/min/mg
Vmax ([15]; formation of G2 from DMC (0.5-40 μM)): 576.1 ± 27.0 pmol/min/mg
IC50 [16]: 31.5 µM
IC50 [17]: 1.7 µM
inhibition of P-gp activities [18]: capable of inhibiting
Km [19, 23]: 5 ± 1.3 µM
Vmax [19, 23]: 264.5±22.3 ( ^***) pmol/min/mg
CLint [19, 23]: 53.0±14.5 ( ^***) μL/min/mg
Km [19, 24]: 3.8 ± 0.9 µM
Vmax [19, 24]: 167.4±11.3 (^###) pmol/min/mg
CLint [19, 24]: 43.9±10.4 (^###) μL/min/mg
tissue distribution of free DMC ([20]; heart): ~140 ng/g
tissue distribution of free DMC ([20]; intestine): ~150000 ng/g
tissue distribution of free DMC ([20]; kidney): ~80 ng/g
tissue distribution of free DMC ([20]; liver): approximately 120 ng/g
tissue distribution of free DMC ([20]; spleen): ~50 ng/g
catalytic activity (glucuronidation of DMC) [21]: approximately 1600 pmol/min/mg
IC50 [22]: 8.8 µM
